Source: patent US9315535B2, “Nucleoside and nucleotide having nitrogen-containing heterocycle structure” (SHIONOGI & CO., LTD., priority 2013, dated 2016)

Key:
[1] = tested on: DNA complementary strand (sense strand 3′-CGC AAA AAA CGA-5′); assay: Melting temperature (Tm) of oligonucleotide hybridized to the DNA complementary strand; format: binding
Method: (§1) Nitrogen stream was passed through the cell chamber of the spectrophotometer (SHIMADZU UV-1800) to prevent dew condensation, and the sample solution was gradually cooled to 5° C. and kept at 5° C. for 15 minutes before starting the measurements. The temperature was raised to 90° C. at the rate of 0.5° C./min while ultraviolet absorption spectra were measured at 260 nm at intervals of 0.5° C. Lidded cells were used to prevent concentration change due to rising temperature.
(§2) The method for determining the Tm values was a method similar to (1).
as §2

[2] = tested on: RNA complementary strand (sense strand 3′-CGC AAA AAA CGA-5′); assay: Melting temperature (Tm) of oligonucleotide hybridized to the RNA complementary strand; format: binding
Method: as §1, §2, §2

[3] = Table 10, X = II-1 (compound I-1), 100 mM NaCl, 10 mM sodium phosphate buffer (pH 7.2), 4.0 μM each strand
[4] = Table 11, Xp = II-2 (compound IV-1), method similar to (1)
[5] = Table 12, nucleoside structure of compound VII-1 (II-3), method similar to (1)

## 5′-d(GCG TTT TTT GCT)-3′ (DNA GCGTTTTTTGCT; DNA, backbone not given here) [oligonucleotide (0), nucleoside moieties of the oligonucleotide are unmodified, used as a control, reference compound]
[1]; [3]
  Tm, DNA complementary strand: 53.1 °C
[1]; [4]
  Tm, DNA complementary strand: 53.1 °C
[1]; [5]
  Tm, DNA complementary strand: 54.0 °C
[2]; [3]
  Tm, RNA complementary strand: 49.3 °C
[2]; [4]
  Tm, RNA complementary strand: 49.3 °C
[2]; [5]
  Tm, RNA complementary strand: 49.7 °C
